This is an account of results in patent publication EP0724571B1, “SUBSTITUTED PYRIDINE-2-ONES AND SUBSTITUTED PYRIDINE-2-THIONES AS BIOCIDES” (Arch Chemicals, Inc., priority 1993, dated 1995).

≈ marks a conversion by molar mass, not a printed value.

Assay in all cases: Minimum Inhibitory Concentration (MIC), broth serial dilution
What all share (assay type): cell-based

The subject of one test is Aspergillus niger. As to conditions: 168 h; E=Aspergillus niger; Sabouraud Dextrose Broth, 10^5 cells or spores/ml, 28°C, molds incubated seven days. The method, then:
(§1) Solutions of the experimental compounds in dimethyl sulfoxide were serially diluted in nutrient broth (Tryptic Soy Broth for bacteria and Sabouraud Dextrose Broth for fungi) in microliter plates. Equal volumes of a broth suspension of bacteria (10^6 CFU/ml) or fungi (10^5 cells or spores/ml) were added to each dilution, and the plates were incubated at 37°C (bacteria and yeast) or 28°C (molds). Bacteria, yeast and molds were incubated two, five and seven days respectively before determining the highest inhibitory dilution.

In another test the test system is Aureobasidium pullulans. As to conditions: F=Aureobasidium pullulans; Sabouraud Dextrose Broth, 10^5 cells or spores/ml. Here is the method: as §1
Another test concerns Candida albicans. As to conditions: 120 h; C=Candida albicans; Sabouraud Dextrose Broth, 10^5 cells or spores/ml, 37°C, yeast incubated five days. Here is the method:
as §1

For the next test, the system named is Escherichia coli. Particulars: 48 h; A=Escherichia coli; Tryptic Soy Broth, 10^6 CFU/ml, 37°C, bacteria incubated two days. Here is the method: as §1
Another test relates to Fusarium sp. Particulars: 168 h; D=Fusarium sp.; Sabouraud Dextrose Broth, 10^5 cells or spores/ml, 28°C, molds incubated seven days. Here is the method: as §1
In the next test the test system is Staphylococcus aureus. Particulars: 48 h; B=Staphylococcus aureus; Tryptic Soy Broth, 10^6 CFU/ml, 37°C, bacteria incubated two days. The method, then:
as §1

Turning to `Cc1cc(CC(C)CC(C)(C)C)n(O)c(=O)c1` (stereo not drawn) [OCTOPIROX® biocide, reference compound], the MIC was 2 µg/mL (≈ 8.43 µM) against Aspergillus niger; 16 to 32 µg/mL (≈ 67.4 to 135 µM) in the test with Aureobasidium pullulans; 2 µg/mL (≈ 8.43 µM) with Candida albicans; 128 µg/mL (≈ 539 µM) with Escherichia coli; 2 µg/mL (≈ 8.43 µM) in the test with Fusarium sp.; 64 µg/mL (≈ 270 µM) against Staphylococcus aureus.
Consider `CC(CCOc1cccc(=O)n1O)CC(C)(C)C` (stereo not drawn) [Example 1, 1-Hydroxy-6-(3,5,5-trimethylhexyloxy)-pyridine-2(1H)-one], for which the MIC amounted to 16 µg/mL (≈ 63.2 µM) in the test on Aspergillus niger; 2 µg/mL (≈ 7.89 µM) against Aureobasidium pullulans; 2 µg/mL (≈ 7.89 µM) in the test with Candida albicans; 32 µg/mL (≈ 126 µM) in the test with Escherichia coli; 2 µg/mL (≈ 7.89 µM) against Fusarium sp.; 32 µg/mL (≈ 126 µM) against Staphylococcus aureus.
As for `CCCCCCCCOc1cccc(=O)n1O` [Example 2, 1-Hydroxy-6-octyloxypyridine-2(1H)-one], the MIC against Aspergillus niger came out at 32 µg/mL (≈ 134 µM); against Aureobasidium pullulans, 4 µg/mL (≈ 16.7 µM); against Candida albicans, 4 µg/mL (≈ 16.7 µM); in the test on Escherichia coli, 32 µg/mL (≈ 134 µM); in the test on Fusarium sp., 2 µg/mL (≈ 8.36 µM); in the test with Staphylococcus aureus it was 16 µg/mL (≈ 66.9 µM).
`CCCCCCCCOc1cccc(=S)n1O` [Example 3, 1-hydroxy-6-octyloxypyridine-2(1H)-thione]: the MIC with Aspergillus niger turned out to be 8 µg/mL (≈ 31.3 µM); against Aureobasidium pullulans, 16 µg/mL (≈ 62.7 µM); against Candida albicans it was 4 µg/mL (≈ 15.7 µM); in the test on Escherichia coli, 16 µg/mL (≈ 62.7 µM); against Fusarium sp., 4 µg/mL (≈ 15.7 µM); against Staphylococcus aureus it was 16 µg/mL (≈ 62.7 µM).

Broadly, the MIC is the smallest concentration in the dilution series that meets the test's criterion for growth inhibition. Lower therefore signals greater potency.
